Source: the NIST ThermoML archive (doi:10.1007/s10765-010-0860-3)
± gives the expanded uncertainty stated by the source.

Experiments:
[1] = 101 kPa, Liquid; for viscosity: Capillary tube (Ostwald / Ubbelohde) method; for mass density: Pycnometric method
[2] = xn = mol fraction of the nth substance listed; details: 101 kPa, Liquid; for viscosity: Capillary tube (Ostwald / Ubbelohde) method; for mass density: Pycnometric method

C1COCCO1 [1,4-dioxane]
[1]
Details | mass density [kg/m3] | viscosity [mPa·s]
288.15 K | 1039.1 ± 0.92 | 1.44 ± 0.012
298.15 K | 1027.92 ± 0.92 | 1.185 ± 0.01
308.15 K | 1016.55 ± 0.93 | 1.029 ± 0.009

C1COCCO1 [1,4-dioxane] + CC1COC(=O)O1
[2], x2 = 0
Details | mass density [kg/m3] | viscosity [mPa·s]
288.15 K | 1039.1 ± 0.92 | 1.44 ± 0.012
298.15 K | 1027.92 ± 0.92 | 1.185 ± 0.01
308.15 K | 1016.55 ± 0.93 | 1.029 ± 0.009

CC(=O)CC(C)=O [2,4-pentanedione]
[1]
Details | mass density [kg/m3] | viscosity [mPa·s]
288.15 K | 980.34 ± 0.72 | 0.741 ± 0.006
298.15 K | 972.18 ± 0.73 | 0.67 ± 0.006
308.15 K | 963.46 ± 0.76 | 0.609 ± 0.005

CC1COC(=O)O1 (configuration not stated) [4-methyl-1,3-dioxolan-2-one]
[1]
Details | mass density [kg/m3] | viscosity [mPa·s]
288.15 K | 1208.67 ± 0.99 | 3.086 ± 0.025
298.15 K | 1197.58 ± 0.96 | 2.5 ± 0.021
308.15 K | 1187.16 ± 0.95 | 2.073 ± 0.017

CC1COC(=O)O1 (configuration not stated) [4-methyl-1,3-dioxolan-2-one] + CC(=O)CC(C)=O
[2], x1 = 1
Details | mass density [kg/m3] | viscosity [mPa·s]
288.15 K | 1208.67 ± 0.99 | 3.086 ± 0.025
298.15 K | 1197.58 ± 0.96 | 2.5 ± 0.021
308.15 K | 1187.16 ± 0.95 | 2.073 ± 0.017

C1CCOC1 [tetrahydrofuran]
[1]
Details | mass density [kg/m3] | viscosity [mPa·s]
288.15 K | 892.93 ± 0.86 | 0.508 ± 0.005
298.15 K | 881.96 ± 0.86 | 0.462 ± 0.004
308.15 K | 870.85 ± 0.87 | 0.426 ± 0.004

C1CCOC1 [tetrahydrofuran] + CC1COC(=O)O1
[2], x2 = 0
Details | mass density [kg/m3] | viscosity [mPa·s]
288.15 K | 892.93 ± 0.86 | 0.508 ± 0.005
298.15 K | 881.96 ± 0.86 | 0.462 ± 0.004
308.15 K | 870.85 ± 0.87 | 0.426 ± 0.004
